Data taken from US10350210B2, “EGFR and ALK dual inhibitor” (PRECEDO PHARMACEUTICALS CO., LTD, priority 2015, dated 2019).

Tests used:
[1] = tested on: EGFR protein (EGFR L858R/T790M, H1975); assay: Effect on signaling pathway in cells, H1975; assay type: cell-based, human; conditions: 4 h
Excerpt: In four cell lines (all purchased from ATCC) including non-small cell lung cancer cell line A549 (expressing wild-type EGFR gene), non-small cell lung cancer cell line H1975 (expressing EGFR L858R/T790M double mutant gene), non-small cell lung cancer cell line H3255 (expressing EGFR L858R mutant gene) and non-small cell lung cancer cell line PC-9 (expressing EGFR delE746_A750 mutant gene), the effect of Compound 1 on EGFR or other protein kinases related to signaling pathways of EGFR such as Stat3, AKT, ErK, eIF4E, 4EBP1, P70S6K was assessed by assaying a number of cellular biochemical and functional endpoints. […] The effect of Compound 1 on phosphorylation of Stat3Y705, AKT T308, AKT 5473, Erk T202/204, EGFR Y1068, P70S6K Thr389, eIF4E Ser209, Erk T202/204, 4EBP1 (Thr37/46) in these cell lines was assayed (FIGS. 1a to 1d).
In non-small cell lung cancer cell line H1975 (expressing EGFR L858R/T790M double mutant gene), the effect of Compound 10 on EGFR and other protein kinases that are closely related to the signaling pathways of EGFR such as Stat3, AKT, ErK, eIF4E, 4EBP1, P70S6K in this cell was assessed by assaying a number of cellular biochemical and functional endpoints. […] The effect of Compound 10 on phosphorylation of Stat3Y705, AKT T308, AKT S473, Erk T202/204, EGFR Y1068, P70S6K Thr389, eIF4E Ser209, Erk T202/204, 4EBP1 (Thr37/46) in this cell line was assayed (FIG. 1g).

CHL = assay: Cell growth (Cell Titer-Glo viability), CHL; assay type: cell-based, Chinese hamster; conditions: Cricetulus griseus; CHL Chinese hamster lung cell, 72 hrs; read-out: GI50
A549 = assay: Growth of cancer cells (Cell Titer-Glo viability), A549; assay type: cell-based; conditions: Homo sapiens; A549 (wild-type EGFR), 72 hrs

GI50 (A549) [nM]	Structure (SMILES)	concentration able to completely inhibit the phosphorylation of EGFR protein (also affects AKT and ERK phosphorylation) [1] [µM]	GI50 (CHL) [nM]
410	C=CC(=O)Nc1cc(Nc2ncc(Cl)c(Nc3ccccc3S(=O)(=O)C(C)C)n2)c(OC)cc1N1CCN(CC)CC1 [Compound 1, N-(5-(5-chloro-4-(2-(isopropylsulfonyl)phenylamino)pyrimidin-2-ylamino)-2-(4-ethylpiperazin-1-yl)-4-methoxyphenyl)acrylamide]	0.03	1800
510	C=CC(=O)Nc1cc(Nc2ncc(Cl)c(Nc3ccccc3S(=O)(=O)C(C)C)n2)c(OC)cc1N1CCCN(C)CC1 [Compound 10, N-(5-(5-chloro-4-(2-(isopropylsulfonyl)phenylamino)pyrimidin-2-ylamino)-4-methoxy-2-(4-methyl-1,4-homopiperazin-1-yl)phenyl)acrylamide]	0.03	3500
